Laboratory results taken from patent US20200277649A1, “BROAD SPECTRUM DETECTION OF DNA DAMAGE BY REPAIR ASSISTED DAMAGE DETECTION (RADD)” (University of South Alabama, priority 2017, published 2020).

Test system: CHO-K1 cells
Assay: RADD detection of BrdU incorporation into genomic DNA
Format: cell-based, Chinese hamster
Conditions: CHO-K1 cells sensitized 24 h, versus basal levels, FIG. 5A

## O=c1[nH]c(=O)n([C@H]2C[C@H](O)[C@@H](CO)O2)cc1Br [BrdU, bromodeoxyuridine]
  RADD mean fluorescence intensity of the nucleus (DNA lesions): increased levels of DNA lesions
